Source: publication PMC3006138, “Fexinidazole – A New Oral Nitroimidazole Drug Candidate Entering Clinical Development for the Treatment of Sleeping Sickness” (PLoS Neglected Tropical Diseases, 2010)
Values joined by “and” are separate entries in the source; they are usually repeats but may differ in a detail not shown here. Equal entries are not always repeated. Where two headings read alike, the source gives them in different places.

Columns and labels:
[1] = One-electron reduction potential by pulse radiolysis; type: physicochemical
Description: One-electron reduction potentials were determined by pulse radiolysis following an established procedure.

[2] = Mouse brain concentrations; type: in vivo
Description: Following sacrifice, the cranium of mice was opened and the brain removed. Excess blood was washed from the brain with distilled water and any excess fluid blotted on absorbent paper. The brain was then snap frozen using liquid nitrogen and placed into a suitably labelled container and stored at approximately −70°C, pending analysis. Brains were homogenized and extracted samples were prepared appropriately for analysis via liquid chromatography-mass spectrometry (LC-MS).
BioDynamics Study No: DND/01
Two groups of female mice were dosed as follows:
Number Treatment Dose (mg/kg) Route
All doses are expressed as free base
Intravenous doses were administered into a lateral tail vein using an appropriately sized syringe and 25G needle and the oral formulation by oral gavage using a polypropylene gavage tube. All doses were given as a single bolus dose at a constant dose volume of 10.0 mL/kg.
1.6 Blood sample collection
At each sampling time point, three animals in each treatment group were deeply anaesthetised using isoflurane and blood samples (approximately 1 mL) taken into individual heparinised tubes by cardiac puncture, following which the animals were killed by cervical fracture. Samples were collected at the following times post-dose:
Following collection, the blood samples were centrifuged (approximately 10000 g, 2 min at 4 °C) and the plasma retained as one aliquot at approximately -70°C prior to analysis of test material concentrations at BioDynamics by LC-MS/MS.
1.7 Collection of terminal brain samples
Following collection of the terminal blood sample the cranium of each mouse was carefully opened and the brain removed. Excess blood was washed from the brain with distilled water and any excess fluid blotted on absorbent paper. The brain was then snap frozen using liquid nitrogen and placed into a suitably labelled container and stored frozen at approximately -70°C pending analysis.
All of the plasma samples together with the brains from the 15 minute time point were analysed for concentrations of the test material and its sulfone and sulfoxide metabolites. In addition the brains from the 5 and 30 minute time points for the intravenously treated and the 30 and 60 minute time points for the orally treated animals were analysed for concentrations of Fexinidazole and its sulfone and sulfoxide metabolites using an LC-MS/MS method developed at BioDynamics.
All samples were treated as temperature sensitive. Blood samples were collected onto wet ice, followed by centrifugation at 4 °C. Plasma and brain samples were snap frozen on dry ice (plasma) or liquid nitrogen (brains) prior to long term storage at less than -70 °C pending analysis.

[3] = test system: T. b. gambiense (STIB 930); assay: In vitro trypanocidal assay (Alamar Blue); type: cell-based, Trypanosoma brucei gambiense; conditions: Trypanosoma brucei, 72 h; read-out: IC50
Description: Parasites were cultured with or without the test article at a concentration of 3×10^4/mL in Minimal Essential Medium, according to Baltz et al., with the following modifications: 0.2 mM 2-mercaptoethanol, 1 mM Na-pyruvate, 0.5 mM hypoxanthine and 15% heat inactivated horse serum at 37°C in 5% CO2 in 96-well microtitre plates for 72 h. 10 µL of Alamar Blue was added for the final 3 h to determine viability. The assay was assessed by reading the fluorescence in each well at an excitation wavelength of 536 nm and at an emission wavelength of 588 nm. The IC50 values were calculated from the sigmoidal inhibition curves. For cytotoxicity, 4×10^4/mL L-6 rat skeletal myoblast cells were used, and incubations and assessments carried out as above.

[4] = Dog 28-day toxicokinetics; type: in vivo; conditions: both sexes, beagle, plasma, po
Description: In the dog repeated-dose toxicokinetic study, fexinidazole was given orally by gavage once a day for 28 days to five (control and high dose) or three (low and mid dose) beagle dogs/sex/dose at the doses of 0 (control group), 50, 200, or 800 mg/kg/day. The control group received the vehicle alone (same as above). Systemic exposure to fexinidazole and of its sulfoxide and sulfone metabolites was evaluated on days 1, 14 and 28 in the same animals used for the toxicological study. Samples were taken at predose, and 30 min, 1, 2, 4, 8 and 24 h after dosing on days 1, 14, and 28, and in addition at 48 and 72 h after treatment on day 28.

hERG = hERG (Homo sapiens, UniProt Q12809); assay: hERG tail current, patch clamp in HEK 293 cells; conditions: for Residual Current (% of control): 37°C
Description: Formulation and stored at 2-4°C when not in use. When in use Tyrode solution was stored at
CaCl2, 1 MgCl2, 5.5 glucose and 5 HEPES. During the patch-clamp experiments the Tyrode
4.2.4. Storage and Formulation of Internal Solution
The internal solution was stored frozen at – 20°C until the day of use. The composition of
the internal solution was (in mM): 110 K+- aspartate, 23 KCl, 3 MgCl2, 1 EGTA, 5 HEPES,
0.4 GTP (Na+ salt), 5 ATP (Na+ salt), 5 creatine phosphate, 0.4 CaCl2 (pH 7.3 with KOH).
4.3.1. Source and Maintenance of hERG Transfected Cells
HEK 293 cells stably transfected with hERG cDNA, supplied by bSys GmbH Switzerland,
continuously maintained and passaged in sterile culture flasks containing a mixture of
Dulbecco’s modified Eagle’s medium and nutrient mixture F-12 supplemented with 10%
foetal bovine serum, 0.9% Penicillin/Streptomycin solution, Hygromycin B and Blasticidin.
HEK 293 cells were passaged at a confluence of about 80%. For electrophysiology studies,
the cells were seeded in Petri dishes (35x10 mm), with culture medium containing
tetracycline to activate channel expression, at a density that enables isolated cells to be
selected for patch-clamping. The dishes were stored in a humidified, gassed (5% CO2)
Petri dishes containing the cells to be used for electrophysiological studies were mounted on
the stage of an inverted microscope and were superfused with Tyrode solution. Membrane
currents were recorded (Axopatch 200B, Axon Instruments) in the whole cell configuration
by using suction pipettes (Harvard apparatus, 1.5 mm o.d. x 0.86 mm i.d.) with tip resistance
in the range of 2.5-3.5 MΩ. Gigaohm seals were formed between the patch electrodes and
individual cells. If the quality of the seal was judged to be poor, the electrode was replaced
and the process repeated with a different cell. Once a stable patch was achieved, recording
was commenced in voltage-clamp mode, with the cell initially clamped at –80 mV. Series
resistance and capacitance were compensated to about 70% of their initial value. Cells were
perfused through a microperfusion system allowing for solution changes to occur within
approximately one second. Computer software (pClamp version 8.0; Axon Instruments) was
used to generate voltage clamp protocols, acquire data and analyze current traces. The data
were stored on a computer hard disk for later analysis. Experiments were performed at a
temperature in the recording chamber of 37 ± 1°C, which was maintained with a temperature
Cells stably expressing hERG were held at –80 mV. Onset and steady state block of the
hERG channel current (IKr) due to the test items were monitored using a pulse pattern with
fixed amplitudes (first depolarization: -50 mV for 500 ms; second depolarization: +20 mV
for 2 seconds; hyperpolarization: -50 mV for 7 seconds). This pulse pattern was repeated
every 15 seconds, and current amplitude at the onset of the second step to –50 mV (“peak
tail current”) was monitored until a steady state was obtained. Recordings were acquired at
the sampling interval of 2 kHz and low-pass filtered at 1 kHz. The steady state peak tail
current was monitored and recorded in vehicle solution and then the test item was applied to
the bath solution. At the end the reference item E4031 was applied to block 100% of the
current for determination of the current “leak” response to the stimulation protocol. The
current amplitude was continually monitored through the onset of the voltage step to –50
mV until a new steady state level of current was achieved. Each cell was exposed to a single
test substance concentration.
4.5. Statistical Analysis
For each cell the effect of the test items was ascertained by calculating the residual current as
percentage of control (% control). All data were corrected for “leak” current by subtracting
Each value represents the average current
recorded from 3 sequential voltage pulses. Data from individual cells was collected and the

[5] = 50 mg/kg/day, 50 mg/kg/day po, day 1
[6] = 50 mg/kg/day, 50 mg/kg/day po, day 14
[7] = 200 mg/kg/day, 200 mg/kg/day po, day 1
[8] = 200 mg/kg/day, 200 mg/kg/day po, day 14
[9] = 800 mg/kg/day, 800 mg/kg/day po, day 1
[10] = 800 mg/kg/day, 800 mg/kg/day po, day 14

Chain of hERG (Q12809 whole entry): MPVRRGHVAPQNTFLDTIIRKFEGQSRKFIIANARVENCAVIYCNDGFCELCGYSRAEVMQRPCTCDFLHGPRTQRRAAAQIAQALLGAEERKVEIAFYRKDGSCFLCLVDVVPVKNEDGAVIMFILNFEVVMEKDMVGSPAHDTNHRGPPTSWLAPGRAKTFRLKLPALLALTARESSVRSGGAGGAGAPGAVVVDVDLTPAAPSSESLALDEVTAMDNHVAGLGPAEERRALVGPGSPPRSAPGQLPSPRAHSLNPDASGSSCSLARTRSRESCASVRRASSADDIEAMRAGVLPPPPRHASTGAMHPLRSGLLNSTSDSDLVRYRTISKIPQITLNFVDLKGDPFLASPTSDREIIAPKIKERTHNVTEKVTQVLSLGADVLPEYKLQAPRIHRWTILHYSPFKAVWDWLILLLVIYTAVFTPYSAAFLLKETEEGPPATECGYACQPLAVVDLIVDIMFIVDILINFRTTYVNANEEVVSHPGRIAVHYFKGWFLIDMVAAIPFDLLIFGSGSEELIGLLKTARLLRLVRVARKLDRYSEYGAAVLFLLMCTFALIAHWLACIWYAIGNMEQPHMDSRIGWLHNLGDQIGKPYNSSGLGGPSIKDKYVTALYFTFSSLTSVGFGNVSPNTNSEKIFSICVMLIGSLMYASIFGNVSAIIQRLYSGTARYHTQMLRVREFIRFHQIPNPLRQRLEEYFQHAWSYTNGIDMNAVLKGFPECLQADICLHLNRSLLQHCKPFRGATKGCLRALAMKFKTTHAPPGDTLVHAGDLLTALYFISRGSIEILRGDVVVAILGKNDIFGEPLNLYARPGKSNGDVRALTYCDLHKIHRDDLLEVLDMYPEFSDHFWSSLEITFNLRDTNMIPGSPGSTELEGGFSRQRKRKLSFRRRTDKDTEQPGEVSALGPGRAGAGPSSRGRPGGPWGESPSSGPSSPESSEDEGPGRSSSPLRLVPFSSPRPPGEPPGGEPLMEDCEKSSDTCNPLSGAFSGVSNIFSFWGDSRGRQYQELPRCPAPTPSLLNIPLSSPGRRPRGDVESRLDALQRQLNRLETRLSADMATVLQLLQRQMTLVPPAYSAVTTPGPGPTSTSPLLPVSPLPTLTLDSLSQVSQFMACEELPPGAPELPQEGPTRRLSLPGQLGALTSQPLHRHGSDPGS

CSc1ccc(OCc2ncc([N+](=O)[O-])n2C)cc1 [Fexinidazole, 1-methyl-2-((p-(methylthio)phenoxy)methyl)-5-nitroimidazole]
single electron redox potential [1]: −511 mV | concentration at 5 min ([2]; female, NMRI, mouse, brain homogenate, intravenous, 1 mg/kg, fexinidazole 1 mg/kg iv, 5 min, read-out: Brain homogenate concentration): 92.5 ng/mL | concentration at 15 min ([2]; female, NMRI, mouse, brain homogenate, intravenous, 1 mg/kg, fexinidazole 1 mg/kg iv, 15 min, read-out: Brain homogenate concentration): 21.3 ng/mL | concentration at 30 min ([2]; female, NMRI, mouse, brain homogenate, intravenous, 1 mg/kg, fexinidazole 1 mg/kg iv, 30 min, read-out: Brain homogenate concentration): 12.1 ng/mL | concentration at 15 min ([2]; female, NMRI, mouse, brain homogenate, oral, 25 mg/kg, fexinidazole 25 mg/kg po, 15 min, read-out: Brain homogenate concentration): 379 ng/mL | concentration at 60 min ([2]; female, NMRI, mouse, brain homogenate, oral, 25 mg/kg, fexinidazole 25 mg/kg po, 60 min, read-out: Brain homogenate concentration): 254 ng/mL | concentration at 5 min ([2]; female, NMRI, mouse, brain, intravenous, 1 mg/kg, fexinidazole 1 mg/kg iv, 5 min, read-out: Brain concentration): 277 ng/g | concentration at 15 min ([2]; female, NMRI, mouse, brain, intravenous, 1 mg/kg, fexinidazole 1 mg/kg iv, 15 min, read-out: Brain concentration): 63.8 ng/g | concentration at 30 min ([2]; female, NMRI, mouse, brain, intravenous, 1 mg/kg, fexinidazole 1 mg/kg iv, 30 min, read-out: Brain concentration): 36.2 ng/g | concentration at 15 min ([2]; female, NMRI, mouse, brain, oral, 25 mg/kg, fexinidazole 25 mg/kg po, 15 min, read-out: Brain concentration): 1140 ng/g | concentration at 30 min ([2]; female, NMRI, mouse, brain, oral, 25 mg/kg, fexinidazole 25 mg/kg po, 30 min, read-out: Brain concentration): 800 ng/g | concentration at 30 min ([2]; female, NMRI, mouse, brain, oral, 25 mg/kg, fexinidazole 25 mg/kg po, 30 min, read-out: Brain homogenate concentration): 266 ng/mL | concentration at 60 min ([2]; female, NMRI, mouse, brain, oral, 25 mg/kg, fexinidazole 25 mg/kg po, 60 min, read-out: Brain concentration): 763 ng/g | Kp at 5 min ([2]; female, NMRI, mouse, brain, iv 1 mg/kg, 5 min, read-out: Mean plasma:brain ratio (plasma = 1.00)): 0.56 | Kp at 15 min ([2]; female, NMRI, mouse, brain, iv 1 mg/kg, 15 min, read-out: Mean plasma:brain ratio (plasma = 1.00)): 0.76 | Kp at 30 min ([2]; female, NMRI, mouse, brain, iv 1 mg/kg, 30 min, read-out: Mean plasma:brain ratio (plasma = 1.00)): 1.03 | Kp at 15 min ([2]; female, NMRI, mouse, brain, po 25 mg/kg, 15 min, read-out: Mean plasma:brain ratio (plasma = 1.00)): 0.76 | Kp at 30 min ([2]; female, NMRI, mouse, brain, po 25 mg/kg, 30 min, read-out: Mean plasma:brain ratio (plasma = 1.00)): 1.16 | Kp at 60 min ([2]; female, NMRI, mouse, brain, po 25 mg/kg, 60 min, read-out: Mean plasma:brain ratio (plasma = 1.00)): 1.22 | Brain concentration ([2]; fexinidazole 25 mg/kg po, 15 min): 1136 ± 54.1 ng/g | Brain concentration ([2]; fexinidazole 25 mg/kg po, 30 min): 800 ± 92.6 ng/g | Brain concentration ([2]; fexinidazole 25 mg/kg po, 60 min): 763 ± 90.7 ng/g | IC50 [3]: 0.16 µg/mL to 0.36 µg/mL and 580 nM to 1.29 µM | Cmax [4, 5]: 40 ± 10 ng/mL | Tmax [4, 5]: 0.75 ± 0.61 h | AUC(0-t) ([4]; 50 mg/kg/day, 50 mg/kg/day po, day 1, read-out: AUC0-t(last)): 190 ± 130 ng·h/mL | Cmax [4, 6]: 30 ± 10 ng/mL | Tmax [4, 6]: 1.08 ± 0.74 h | AUC(0-t) ([4]; 50 mg/kg/day, 50 mg/kg/day po, day 14, read-out: AUC0-t(last)): 150 ± 130 ng·h/mL | Cmax [4, 7]: 70 ± 30 ng/mL | Tmax [4, 7]: 1 ± 0.55 h | AUC(0-t) ([4]; 200 mg/kg/day, 200 mg/kg/day po, day 1, read-out: AUC0-t(last)): 440 ± 90 ng·h/mL | Cmax [4, 8]: 80 ± 10 ng/mL | Tmax [4, 8]: 1.5 ± 0.77 h | AUC(0-t) ([4]; 200 mg/kg/day, 200 mg/kg/day po, day 14, read-out: AUC0-t(last)): 450 ± 140 ng·h/mL | Cmax [4, 9]: 140 ± 70 ng/mL | Tmax [4, 9]: 1.15 ± 0.47 h | AUC(0-t) ([4]; 800 mg/kg/day, 800 mg/kg/day po, day 1, read-out: AUC0-t(last)): 840 ± 320 ng·h/mL | Cmax [4, 10]: 140 ± 50 ng/mL | Tmax [4, 10]: 1.2 ± 0.42 h | AUC(0-t) ([4]; 800 mg/kg/day, 800 mg/kg/day po, day 14, read-out: AUC0-t(last)): 1050 ± 300 ng·h/mL | Residual Current (% of control) (hERG; 1 µM): 100.12±4.29% | Residual Current (% of control) (hERG; 5 µM): 94.86±1.06% | Residual Current (% of control) (hERG; 30 µM): 88.97±8.21% | effect on hERG peak tail current (hERG; 1, 5 and 30 µM): judged not to affect hERG peak tail current
